Series [1] relates to human ovarian cancer xenografts (papillary serous adenocarcinoma of the ovary). The experiment in a line: Large gonadal fat pad (GFP) human ovarian cancer xenograft in SCID mice, single cisplatin dose, tumor growth. Format: in vivo, CB 17-SCID/SCID mice. As to conditions: large GFP tumors; cisplatin 5 mg/kg ip day 0; EPO 20 units sc three times per week day −15 to +6; necropsy day 7. Here is the method: To illustrate this embodiment, experiments were carried out in immunodeficient SCID mice bearing human ovarian cancer.
Eighty CB 17-SCID/SCID mice (Taconic Labs) were used. The animals were kept under sterile and light-controlled conditions. Portions of tumors from patients with recurrent stage IIIC, grade 3, papillary serous adenocarcinoma of the ovary were implanted and propagated in SCID mice by procedures well known to those skilled in the art. Briefly, xenografts were grown and passaged at least five times prior to the implantation of tumors into experimental animals. […]
Automated hematocrits were obtained from tail bleeds performed on three mice selected randomly from each group on days −15, −7, 0, and +7. […] Tumors were excised and measured in three dimensions with vernier calipers. Tumor volume was calculated as follows. […]
The percent growth of the tumor was calculated using the formula: […]
(§1) Percent tumor growth was calculated for each index day compared to day 0 and plotted over time. […] The growth curves developed in the smaller subcutaneous tumor group and the curves representing change in the hematocrit over time were analyzed by analysis of variance. […]

Series [2] is described as follows: Automated hematocrits from tail bleeds of tumor-bearing SCID mice. Type of series: in vivo, CB 17-SCID/SCID mice. More on the design: Hematocrits: unit not given here. As to conditions: for Hematocrits: mice bearing small subcutaneous tumors. The method, then:
Automated hematocrits were obtained from tail bleeds performed on three mice selected randomly from each group on days −15, −7, 0, and +7. No mouse was bled twice. On day 7, mice were sacrificed and necropsies were performed. Tumors were excised and measured in three dimensions with vernier calipers. Tumor volume was calculated as follows.
(§2) In another illustration of this embodiment, cisplatin was administered twice during the treatment. In additional forty experimental mice at six weeks of age, 2 mm portions of human ovarian cancer xenografts were implanted. Treatment groups were randomly assigned three days after implantation. Group I animals (controls) received 100 μl of PBS three times per week subcutaneously from day −15 to day +13 and 300 μl PBS ip on day 0 and 7. Mice in Group II (EPO group) received EPO subcutaneously at a dose of 20 units in 100 μl of PBS three times per week from day −15 to day +13 and 300 μl of PBS ip on day 0 and 7. Mice in Group III (cisplatin group) received cisplatin ip at a dose of 5 mg/kg in 300 μl of PBS on day 0 and 7, and 100 μl of subcutaneous PBS three times per week from day −15 to day +13. Mice in Group IV (EPO+cisplatin group) received subcutaneous EPO injections as in group 2 three times per week from day −15 to day +13 and ip cisplatin injections as in group 3 on day 0 and 7. Mice were observed until day +15.
Automated hematocrits were obtained as described above on days −15, −7, 0, +7, and +14. The change in hematocrit relative to the initial hematocrit was plotted over time. Serial measurements of tumor nodules were made in two dimensions using vernier calipers starting on day zero. On day zero, tumors had grown to approximately 4 mm×5 mm in size in each group. Tumor volumes were calculated on days 0, +1, +3, +5, +7, +9, +11, +13 and +15 using the formula.
Percent tumor growth was calculated for each index day compared to day 0 and plotted over time. Statistical analysis included Student T tests for the overall tumor growth in the large GFP tumor experiment. The growth curves developed in the smaller subcutaneous tumor group and the curves representing change in the hematocrit over time were analyzed by analysis of variance. Significance was defined by P values less than 0.05.

The nature of series [3]: Performance status (morbidity/mortality criteria) of treated tumor-bearing mice. Format: in vivo, CB 17-SCID/SCID mice. More on the design: key to Performance status score, individual mice: A grade of 0 equaled normal health; a grade of 5+ equaled death. As to conditions: for Performance status score, individual mice: mouse no. 1-10, Table 2 (counts match day +14). The method, then: To illustrate this embodiment, performance status of mice from Example 1 receiving the various treatments was evaluated. Performance status was assessed on days 0, +7, and +14 using five objective criteria associated with morbidity and mortality in experimental mice. The five criteria were (1) ruffled fur; (2) weakness/lethargy; (3) 20% weight loss compared to the mean weight of control animals; (4) kyphotic hunched posturing; and (5) death. A grade of 0 equaled normal health and a grade of 5+ equaled death.

Series [4] deals with human ovarian cancer xenografts. The experiment in a line: Small subcutaneous human ovarian cancer xenograft in SCID mice, cisplatin on day 0 and 7, tumor growth curves. Type of series: in vivo, CB 17-SCID/SCID mice. As to conditions: subcutaneous tumor nodules; cisplatin 5 mg/kg ip day 0 and 7; EPO 20 units sc three times per week day −15 to +13; to day +15; FIG. 1. Here is the method: as §2, with “Mice in Group IV (EPO+cisplatin group) received subcutaneous EPO injections as in group 2 three times per week from day −15 to day +13 and ip cisplatin injections as in group 3 on day 0 and 7. Mice were observed until day +15.” left out
Automated hematocrits were obtained as described above on days −15, −7, 0, +7, and +14. […] Tumor volumes were calculated on days 0, +1, +3, +5, +7, +9, +11, +13 and +15 using the formula. […]
as §1
Background: In xenograft studies the graft and the host belong to different species.

For series [5] the following is noted: in vivo; cited from earlier work.

Results on two compounds are retold here after US6620779B2, “Method of enhancing the efficacy of anti-tumor agents” (Health Research Inc., priority 1999, dated 2003).

Entries after “also recorded” stand apart in the source; their conditions may differ.

Take `N.N.[Cl][Pt][Cl]` [CISPLATIN, cis-diamine dichloro platinum]: in series [1], the “Tumor growth (percent tumor growth, tumor size at necropsy)” value was “significant difference in the tumor growth was observed in the groups treated with and without cisplatin”. The Hematocrits in series [2] (Week 0) is 39.8 ± 0.3; in series [2] (Week +1) it was 40.7 ± 0.1; in series [2] (Week +2), 33.1 ± 0.3; in series [2] (Week −1), 39.8 ± 0.2; in series [2] (Week −2 (initial value)) it was 39.8 ± 0.2. In addition, the “Decrease in the hematocrit” value in series [2] (over time vs initial value, FIG. 2) came out at 20%. Moreover, the “Mice with 20% weight loss compared to controls” value in series [3] (day +7, 10 mice per group) stood at 6. In addition, the “Mice with ruffled fur” value in series [3] (day +7, 10 mice per group) is reported as “all”. In series [3] (day +7, 10 mice per group), the “Mice with signs of weakness/lethargy” value is recorded as “all”. The “Mice with hunched posturing” value in series [3] (day +14, 10 mice per group) worked out at 3. The Mortalities in series [3] (day +14, 10 mice per group) came to 4. Moreover, the “Performance status score, individual mice” value in series [3] is on record as “+ + +; also recorded: + + + +; also recorded: + + + + +”.

Regarding “EPO: erythropoietin, hormone regulating red blood cell production; used as hematocrit elevator”, the “Tumor growth (percent tumor growth, tumor size at necropsy)” value in series [1] is “No difference was observed between the controls and the EPO group”. Also, the “Tumor growth curves (percent tumor growth vs day 0)” value in series [4] is “no difference was observed between the controls and the EPO group”. The Hematocrits in series [2] (Week 0) amounted to 48.9 ± 0.3; in series [2] (Week +1) it was 49.3 ± 0.3; in series [2] (Week +2), 53.6 ± 0.4; in series [2] (Week −1) it was 44.9 ± 0.2; in series [2] (Week −2 (initial value)), 39.5 ± 0.2. Also, in series [2] (vs week −2, p<0.01 vs controls, FIG. 2), the “Increase in the hematocrit compared to its initial value” was 25-35%. Further, in series [3] (day +7, all mice of the group), the Performance status scores result is “zero”. Moreover, in series [3], the “Performance status score, individual mice” value came out at 0. Also, the “Performance status score, Total” value in series [3] (sum over 10 mice, Table 2) is given as 0. Also, in series [5], the “Half life in the plasma” value was “about 5 hours”.
